Measurements reported in US7175856B2, “Palatable oral suspension and method” (Bristol-Myers Squibb Company, priority 2002, dated 2007).

Experiment: physchem
Type: physicochemical

C[C@H]1NCc2cc(-c3ccc4c(=O)c(C(=O)O)cn(C5CC5)c4c3OC(F)F)ccc21 [des-quinolone, 1-Cyclopropyl-8-(difluoromethoxy)-7-[(1R)-1-methyl-2,3-dihydro-1H-5-isoindolyl]-4-oxo-1,4-dihydro-3-quinolinecarboxylic acid methanesulfonate monohydrate]
solubility (aqueous buffer): ~0.07 mg/mL | solubility (water): ~17.4 mg/mL
